Measurements reported in patent publication US3965109A, “Certain aryl amino pyridines” (priority 1971, dated 1976).

What was measured:
[1] = system: Carrot; experiment: Further herbicidal test, various rates; format: in vivo; details: scale 0 to 5 (complete kill)
[2] = system: Agriolimax reticulatus (slugs); experiment: Molluscicidal activity test; format: in vivo, Agriolimax reticulatus (Mull); details: pellet with 4% by weight; 6 days; 10°C
Outline: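 Compound was applied to a calf feeding pellet at 4% by weight active ingredient after 24 h air drying. Two replicates, each of 2 slugs starved 24 h, were kept with a moist filter paper at 10°C, and kill was assessed after 6 days.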

[3] = system: broadleaved plants; experiment: Selective herbicidal activity; format: in vivo; details: Tables 13 and 14
Description: (§1) This Example illustrates the selective herbicidal activity of compounds No. 5 and 12 of Table 1. The compounds, formulated as in Example 5 were sprayed on to pots of soil previously sown with seeds of the plant species shown in Tables 13 and 14.
(§2) Table 14 gives the results for compound No. 12 of Table 1 The figures are assessments of damage to the plants 23 days after treatment, on a scale of 0 to 5 where 0 is no effect and 5 is complete kill

[4] = system: Barley; experiment: Selective herbicidal activity; format: in vivo
Description: as §1, §2

[5] = system: Wheat; experiment: Selective herbicidal activity; format: in vivo
Description: as §1, §2

[6] = system: Musca domestica (houseflies); experiment: Pest toxicity test, contact test; format: in vivo; details: 0.1% by weight; milk/sugar; 2 days; flies sprayed directly
[7] = system: Megoura viceae; experiment: Pest toxicity test; format: in vivo; details: 0.1% by weight; broad bean; 2 days
[8] = system: Puccinia recondita (wheat); experiment: Fungicidal test against foliar disease A (foliage spray plus soil drench); format: in vivo; details: 100 ppm spray and drench; 10 days
[9] = system: Mayweed; experiment: Selective herbicidal activity; format: in vivo, Tripleurospermum maritimum ssp. inodorum; details: 2 kg/hectare; 23 days; scale 0 to 5 (complete kill)
Description: as §1
Mayweed Tripleurospermum maritimum

[10] = system: Rice; experiment: Further herbicidal test, various rates; format: in vivo; details: scale 0 to 5 (complete kill)
[11] = system: Plutella maculipennis (diamond back moth larvae); experiment: Pest toxicity test; format: in vivo
[12] = system: Piricularia oryzae (rice); format: in vivo; details: 100 ppm spray and drench; 7 days
[13] = system: Kale; experiment: Further herbicidal test, various rates; format: in vivo; details: scale 0 to 5 (complete kill)
[14] = system: Pieris brassicae (cabbage white caterpillars); experiment: Pest toxicity test; format: in vivo; details: 0.1% by weight, 2 days
[15] = system: Pea; experiment: Further herbicidal test, various rates; format: in vivo; details: scale 0 to 5 (complete kill)
[16] = system: Maize; experiment: Herbicidal test, pre- and post-emergence; format: in vivo
[17] = system: Wheat; experiment: Herbicidal test, pre- and post-emergence; format: in vivo
[18] = system: Phaedon cochleariae (mustard beetles); experiment: Pest toxicity test; format: in vivo
[19] = system: Redshank; experiment: Selective herbicidal activity; format: in vivo, Polygonum persicaria; details: 2 kg/hectare; 23 days; scale 0 to 5 (complete kill)
Description: as §1
Redshank Polygonum persicaria

[20] = system: Aedes aegypti (mosquito larvae); experiment: Pest toxicity test; format: in vivo; details: 0.01% by weight; water; 1 day
[21] = system: Knotgrass; experiment: Selective herbicidal activity; format: in vivo, Polygonum aviculare; details: 2 kg/hectare; 23 days; scale 0 to 5 (complete kill)
Description: as §1, §2
Knotgrass Polygonum aviculare

[22] = system: Aedes aegypti (mosquito adults); experiment: Pest toxicity test; format: in vivo; details: 0.01% by weight; plywood; 1 day
[23] = system: Lettuce; experiment: Herbicidal test, pre- and post-emergence; format: in vivo
[24] = system: Sugar beet; experiment: Further herbicidal test, various rates; format: in vivo; details: scale 0 to 5 (complete kill)
[25] = system: Uncinula necator (vine); experiment: Fungicidal test against foliar disease D (foliage spray plus soil drench); format: in vivo; details: 100 ppm spray and drench; 10 days
[26] = system: Onion; experiment: Further herbicidal test, various rates; format: in vivo; details: scale 0 to 5 (complete kill)
[27] = system: Oat; experiment: Further herbicidal test, various rates; format: in vivo; details: scale 0 to 5 (complete kill)
[28] = system: Corn Marigold; experiment: Selective herbicidal activity; format: in vivo, Chrysanthemum segetum; details: 2 kg/hectare; 23 days; scale 0 to 5 (complete kill)
Description: as §1, §2
Corn marigold Chrysanthemum segetum

[29] = system: Tomato; experiment: Herbicidal test, pre- and post-emergence; format: in vivo
[30] = system: Tetranychus telarius (red spider mites, adults); experiment: Pest toxicity test; format: in vivo; details: 0.1% by weight; French bean; 3 days
[31] = system: Tetranychus telarius (red spider mites, eggs); experiment: Pest toxicity test; format: in vivo; details: 0.1% by weight; French bean; 3 days
[32] = system: Plasmopara viticola (vine); experiment: Fungicidal test against foliar disease C (foliage spray plus soil drench); format: in vivo; details: 100 ppm spray and drench; 10 days
[33] = system: Speedwell; experiment: Selective herbicidal activity; format: in vivo, Veronica spp; details: 2 kg/hectare; 23 days; scale 0 to 5 (complete kill)
Description: as §1

[34] = system: Barley; experiment: Further herbicidal test, various rates; format: in vivo; details: scale 0 to 5 (complete kill)
[35] = system: Aphis fabae; experiment: Pest toxicity test; format: in vivo; details: 0.1% by weight; broad bean; 2 days
[36] = system: larvae of the blowfly (Lucilia serrata); experiment: Insecticidal test on blowfly larvae on treated filter paper; format: in vivo; details: scale of 1 to 6; filter paper with horse serum
[37] = system: larvae of the tick Boophilus microplus; experiment: Similar test on tick larvae on filter paper without horse serum; format: in vivo
[38] = 2 kg/hectare, 23 days, scale 0 to 5 (complete kill)
[39] = 10 lb/acre (11.2 kg/ha), scale 0 (no effect) to 3 (complete kill)
[40] = 0.1% by weight, mustard/paper, 2 days
[41] = 10 kg/ha, scale 0 to 3 (complete kill)

O=[N+]([O-])c1c(F)c(F)c(Nc2c(Cl)c(F)nc(F)c2Cl)c(F)c1F [Compound 12, 3,5-Dichloro-2,6-difluoro-4(4-nitro 2,3,5,6-tetrafluoroanilino) pyridine]
Damage to plants, post-emergence ([1]; 5 lb/acre): 5
Damage to plants, pre-emergence ([1]; 5 lb/acre): 4
% Kill of slugs [2]: 50%
damage to the broadleaved plants (in words) [3]: caused damage to the broadleaved plants
Damage to plants [4, 38]: 1
damage to barley (in words) ([4]; Tables 13 and 14): undamaged
Damage to plants [5, 38]: 0
damage to wheat (in words) ([5]; Tables 13 and 14): undamaged
Mortality grading (kill), contact test [6]: 2 (2 represents 60 - 90% kill)
Mortality grading (kill) [7]: 3 (3 represents over 90% kill)
Amount of disease grading, disease A [8]: 2 (6 to 25)
Damage to plants [9]: 5
Damage to plants, post-emergence ([10]; 5 lb/acre): 0
Mortality grading (kill) ([11]; in vivo): 0 (key: O represents less than 30% kill; 1 represents 30 - 49% kill; 2 represents 60 - 90% kill; 3 represents over 90% kill; C indicates a chemosterilant effect.; A indicates an antifeeding effect.)
Amount of disease grading, disease E [12]: 0 (61 to 100)
Damage to plants, post-emergence ([13]; 5 lb/acre): 5
Damage to plants, pre-emergence ([13]; 5 lb/acre): 4
Mortality grading (kill) [14]: 0 (O represents less than 30% kill)
Damage to plants, post-emergence ([15]; 5 lb/acre): 1
Damage to plants, pre-emergence ([15]; 5 lb/acre): 3
Damage to plants, post-emergence [16, 39]: 1
Damage to plants, pre-emergence [16, 39]: 3
Damage to plants, post-emergence [17, 39]: 0
Damage to plants, pre-emergence [17, 39]: 3
Mortality grading (kill) ([18]; in vivo): 0 (key: O represents less than 30% kill; 1 represents 30 - 49% kill; 2 represents 60 - 90% kill; 3 represents over 90% kill; C indicates a chemosterilant effect.; A indicates an antifeeding effect.)
Damage to plants [19]: 5
Mortality grading (kill) [20]: 3 (3 represents over 90% kill)
Damage to plants [21]: 4
Mortality grading (kill) [22]: 0 (O represents less than 30% kill)
Damage to plants, post-emergence [23, 39]: 3
Damage to plants, pre-emergence [23, 39]: 3
Damage to plants, post-emergence ([24]; 5 lb/acre): 5
Damage to plants, pre-emergence ([24]; 5 lb/acre): 4
Amount of disease grading, disease D [25]: 3 (0 to 5)
Damage to plants, post-emergence ([26]; 5 lb/acre): 0
Damage to plants, post-emergence ([27]; 5 lb/acre): 0
Damage to plants, pre-emergence ([27]; 5 lb/acre): 0
Damage to plants [28]: 3.5
Damage to plants, post-emergence [29, 39]: 3
Damage to plants, pre-emergence [29, 39]: 3
Mortality grading (kill) [30]: 3 (3 represents over 90% kill)
Mortality grading (kill) [31]: 3 (3 represents over 90% kill)
Amount of disease grading, disease C [32]: 3 (0 to 5)
Damage to plants [33]: 0
Damage to plants, post-emergence ([34]; 5 lb/acre): 2
Mortality grading (kill) [35]: 3 (3 represents over 90% kill)

O=[N+]([O-])c1ccc(Nc2c(F)c(F)nc(F)c2F)c(C(F)(F)F)c1 [Compound 28, 4-(4-Nitro-2-trifluoromethylanilino)-tetrafluoropyridine]
Damage to plants, post-emergence ([1]; 1 kg/hectare): 3
Damage to plants, pre-emergence ([1]; 1 kg/hectare): 4
Damage to plants, post-emergence ([1]; 5 kg/hectare): 4
Damage to plants, pre-emergence ([1]; 5 kg/hectare): 5
Mortality grading (kill), contact test [6]: 3 (3 represents over 90% kill)
Mortality grading (kill) [7]: 3 (3 represents over 90% kill)
Amount of disease grading, disease A (Table 4) [8]: 0 (61 to 100)
Damage to plants, post-emergence ([10]; 1 kg/hectare): 0
Damage to plants, pre-emergence ([10]; 1 kg/hectare): 4
Damage to plants, post-emergence ([10]; 5 kg/hectare): 0
Damage to plants, pre-emergence ([10]; 5 kg/hectare): 5
Mortality grading (kill) [11, 40]: 3 (3 represents over 90% kill)
Damage to plants, post-emergence ([13]; 1 kg/hectare): 5
Damage to plants, pre-emergence ([13]; 1 kg/hectare): 4
Damage to plants, post-emergence ([13]; 5 kg/hectare): 4
Damage to plants, pre-emergence ([13]; 5 kg/hectare): 5
Mortality grading (kill) [14]: 3 (3 represents over 90% kill)
Damage to plants, pre-emergence ([15]; 1 kg/hectare): 5
Damage to plants, post-emergence ([15]; 5 kg/hectare): 0
Damage to plants, pre-emergence ([15]; 5 kg/hectare): 5
Damage to plants, post-emergence [16, 41]: 0
Damage to plants, pre-emergence [16, 41]: 0
Damage to plants, post-emergence [17, 41]: 1
Damage to plants, pre-emergence [17, 41]: 3
Activity relative to lindane [36]: 6 (6 represents activity 10 times that of the standard)
Mortality grading (kill) [18, 40]: 3 (3 represents over 90% kill)
Mortality grading (kill) [20]: 3 (3 represents over 90% kill)
Mortality grading (kill) [22]: 3 (3 represents over 90% kill)
Damage to plants, post-emergence [23, 41]: 3
Damage to plants, pre-emergence [23, 41]: 3
Damage to plants, post-emergence ([24]; 1 kg/hectare): 5
Damage to plants, pre-emergence ([24]; 1 kg/hectare): 5
Damage to plants, post-emergence ([24]; 5 kg/hectare): 5
Damage to plants, pre-emergence ([24]; 5 kg/hectare): 5
times more toxic than lindane [37]: 10 times
Amount of disease grading, disease D (Table 4) [25]: 3 (0 to 5)
Damage to plants, post-emergence ([26]; 1 kg/hectare): 3
Damage to plants, pre-emergence ([26]; 1 kg/hectare): 5
Damage to plants, post-emergence ([26]; 5 kg/hectare): 0
Damage to plants, pre-emergence ([26]; 5 kg/hectare): 5
Damage to plants, post-emergence ([27]; 1 kg/hectare): 2
Damage to plants, pre-emergence ([27]; 1 kg/hectare): 4
Damage to plants, post-emergence ([27]; 5 kg/hectare): 0
Damage to plants, pre-emergence ([27]; 5 kg/hectare): 5
Damage to plants, post-emergence [29, 41]: 3
Damage to plants, pre-emergence [29, 41]: 3
Mortality grading (kill) [30]: 3 (3 represents over 90% kill)
Mortality grading (kill) [31]: 3 (3 represents over 90% kill)
Amount of disease grading, disease C (Table 4) [32]: 3 (0 to 5)
Damage to plants, post-emergence ([34]; 1 kg/hectare): 1
Damage to plants, pre-emergence ([34]; 1 kg/hectare): 4
Damage to plants, post-emergence ([34]; 5 kg/hectare): 0
Damage to plants, pre-emergence ([34]; 5 kg/hectare): 5
Mortality grading (kill) [35]: 3 (3 represents over 90% kill)
